One series is described as follows: in vitro. As to conditions: rat. On the procedure:
Serial drug dilutions of 11 3-fold dilution steps covering a range from 100 to 0.002 μg/mL were prepared. After 70 h of incubation, the plates were inspected under an inverted microscope to assure the growth of the controls and sterile conditions. […] Then, the plates were read with a Spectramax Gemini XS microplate fluorometer (Molecular Devices Cooperation, Sunnyvale, CA, USA) using an excitation wavelength of 536 nm and an emission wavelength of 588 nm. […] Podophyllotoxin (Sigma P4405) was used as control.

In a further series the test system is P. falciparum K1. The series is described as follows: In vitro 3H-hypoxanthine incorporation assay, erythrocytic stages, K1 strain. The format is cell-based. As to conditions: Plasmodium falciparum. On the procedure:
(§1) Chloroquine (Sigma C6628) was used as standard. […] Serial drug dilutions of 11 3-fold dilution steps covering a range from 100 to 0.002 μg/mL were prepared. The 96-well plates were incubated in a humidified atmosphere at 37 °C; 4% CO2, 3% O2, 93% N2. […] The plates were incubated for a further 24 h under the same conditions. The plates were then harvested with a Betaplate cell harvester (Wallac, Zurich, Switzerland). The red blood cells were transferred onto a glass fiber filter and washed with distilled water. The dried filters were inserted into a plastic foil with 10 mL of scintillation fluid and counted in a Betaplate liquid scintillation counter (Wallac, Zurich, Switzerland).

A further series deals with P. falciparum NF54. The series is described as follows: In vitro 3H-hypoxanthine incorporation assay, erythrocytic stages, NF54 strain. It counts as cell-based, Plasmodium falciparum. The settings on record: average of four determinations, read-out: P.f. NF54 IC50. As to the method:
as §1

Series [1] is described as follows: Parallel artificial membrane permeability assay (PAMPA). The format is in vitro ADME. As to conditions: pH 7.4, 200 µM in PBS, room temperature; for Papp at 5 h, 200 µM: pH 7.4, PAMPA, read-out: Pe (effective permeability). On the procedure: The PAMPA was performed using a 96-well precoated Corning Gentest PAMPA plate at a pH of 7.4. The PAMPA plate system consists of a donor plate and an acceptor plate. When both plates are coupled, each well is divided into two chambers that are separated by a lipid–oil–lipid trilayer constructed in a porous filter. Stock solutions (10 mM) of each compound were prepared in DMSO and then further diluted to a concentration of 200 µM in phosphate-buffered saline (PBS) at pH 7.4. The compound dissolved in PBS was then added to the donor plate and pure PBS was added to the acceptor plate. Four replicates of each compound and negative control (PBS) were transferred into different wells of the donor plate. Both plates were coupled and left at room temperature for 5 h. Then, the plates were separated, and the solutions of each donor well and acceptor well were transferred to 96-well UV-Star Microplates (Greiner Bio-One). The UV absorbance of compounds in donor wells and acceptor wells were analyzed by a SpectraMax M3 UV plate reader (Molecular Devices). The concentrations were received from a calibration curve for each substance. The plates were analyzed at a wavelength where the R^2 value of the calibration curve was higher than 0.99 [34]. The effective permeability (Pe) was calculated as shown in the following Equations (1)–(3):(1) Penm/s=10^7∗−ln1−cAt/cequ/S∗1/VD+1/VA∗ t where:
cequ—equilibrium concentration. (2) cequ=cDt ∗VD+cAt ∗VA/VD+VA where:
Recovery of compounds from donor and acceptor wells (mass retention) was calculated as shown in the equation below. Data were only accepted when recovery exceeded 70%.

Setting [2] is: K1, strain resistant to chloroquine and pyrimethamine, average of four determinations, read-out: P.f. K1 IC50.
The mark [3] stands for this setting: Plasmodium falciparum, NF54, chloroquine-sensitive strain.

Structures are written as SMILES. Read-outs that look alike come from different tables or passages of the source.

For orientation: IC50 means the concentration that inhibits the measured activity by half. As a reminder, the melting point is the temperature of the solid-liquid transition.

`C[C@@H]1CC[C@H]2[C@@H](C)C(=O)O[C@@H]3O[C@@]4(C)CC[C@@H]1[C@]32OO4` [ART, artemisinin, reference compound] returned an IC50 at 72 h in “in vitro” of 450 µM. Further, the IC50 in the series on P. falciparum K1 (setting [2]) amounted to 0.0064 µM.
For the molecule `CCN(CC)CCCC(C)Nc1ccnc2cc(Cl)ccc12` (stereo not drawn) [CQ, chloroquine, reference compound], the IC50 at 72 h in “in vitro” is 188 µM. Also, in the series on P. falciparum K1 (K1, read-out: P.f. K1 IC50), the IC50 turned out to be 0.15 µM.
Take `CCOc1ccc(-c2nonc2NC(=O)c2ccccc2)cc1OCC` [Compound 10, N-(4-(3,4-Diethoxyphenyl)-1,2,5-oxadiazol-3-yl)benzamide]: the melting point is 199 °C. The IC50 with P. falciparum NF54 (setting [3]) is 0.076 µM. The molecule also came in with an IC50 at 72 h in “in vitro” of 111 µM. Besides, in the series with P. falciparum K1 (setting [2]), the IC50 was 0.091 µM.
As for `CCOc1ccc(-c2nonc2NC(=O)c2ccccc2C)cc1OCC` [Compound 11, N-(4-(3,4-Diethoxyphenyl)-1,2,5-oxadiazol-3-yl)-2-methylbenzamide], the results for the IC50 in the series with P. falciparum NF54 (setting [3]) and in the series on P. falciparum NF54 (chloroquine-sensitive strain) were 0.343 to 0.831 µM and 0.343 µM, respectively. Also, the midpoint of inhibition in “in vitro”, the IC50 at 72 h, lay at 14.9 µM.
Molecule `CCOc1ccc(-c2nonc2NC(=O)c2ccccc2C(F)(F)F)cc1OCC` [Compound 12, N-(4-(3,4-Diethoxyphenyl)-1,2,5-oxadiazol-3-yl)-2-(trifluoromethyl)benzamide] came in with an IC50 at 72 h in “in vitro” of 14.2 µM.
Take `CCOc1ccc(-c2nonc2NC(=O)c2cccc(C(F)(F)F)c2)cc1OCC` [Compound 13, N-(4-(3,4-Diethoxyphenyl)-1,2,5-oxadiazol-3-yl)-3-(trifluoromethyl)benzamide]: the melting point was 153 °C. Moreover, the IC50 in the series with P. falciparum NF54 (setting [3]) came to 0.019 µM. Besides, in series [1], the Papp at 5 h, 200 µM was 4.26 ×10⁻⁶ cm/s. This molecule gave an IC50 at 72 h in “in vitro” of 9.97 µM. For the same molecule, in the series with P. falciparum K1 (setting [2]), the IC50 stood at 0.007 µM.
`CCOc1ccc(-c2nonc2NC(=O)c2cccc(F)c2)cc1OCC` [Compound 14, N-(4-(3,4-Diethoxyphenyl)-1,2,5-oxadiazol-3-yl)-3-fluorobenzamide] returned a melting point of 250 °C. In the series with P. falciparum NF54 (setting [3]), the IC50 is 0.049 µM. This molecule yielded an IC50 at 72 h in the series “in vitro” of 41.1 µM. Also, the half-maximal inhibitory concentration (IC50) with P. falciparum K1 (setting [2]) was 0.108 µM.
In the case of `CCOc1ccc(-c2nonc2NC(=O)c2cccc(OC(F)(F)F)c2)cc1OCC` [Compound 15, N-(4-(3,4-Diethoxyphenyl)-1,2,5-oxadiazol-3-yl)-3-(trifluoromethoxy)benzamide], in the series on P. falciparum NF54 (setting [3]), the IC50 was determined as 0.098 µM. In “in vitro”, this molecule yielded an IC50 at 72 h of 14 µM.
Turning to `CCOc1ccc(-c2nonc2NC(=O)c2ccc(OC)c(Cl)c2)cc1OCC` [Compound 16, 3-Chloro-N-(4-(3,4-diethoxyphenyl)-1,2,5-oxadiazol-3-yl)-4-methoxybenzamide], the melting point was 260 °C (dec.). The IC50 with P. falciparum NF54 (setting [3]) fell in the range of 0.014 to 0.167 µM. In addition, the IC50 in the series with P. falciparum NF54 (chloroquine-sensitive strain) worked out at 0.014 µM. The IC50 at 72 h in “in vitro” amounted to 20 µM.
For `CCOc1ccc(-c2nonc2NC(=O)c2ccc(OC)c(F)c2)cc1OCC` [Compound 17, N-(4-(3,4-Diethoxyphenyl)-1,2,5-oxadiazol-3-yl)-3-fluoro-4-methoxybenzamide], the melting point is 232 °C (dec.). In addition, in series [1], the Papp at 5 h, 200 µM stood at 3.9 ×10⁻⁶ cm/s. In addition, in “in vitro”, the IC50 at 72 h stood at 35 µM.
Take `CCOc1ccc(-c2nonc2NC(=O)c2ccc(CN3CCCC3)cc2)cc1OCC` [Compound 26, N-(4-(3,4-Diethoxyphenyl)-1,2,5-oxadiazol-3-yl)-4-((pyrrolidin-1-yl)methyl)benzamide]: the melting point is 251 °C (dec.). Besides, in series [1], the Papp at 5 h, 200 µM stood at 8.13 ×10⁻⁶ cm/s. The same molecule had an IC50 at 72 h in the series “in vitro” of 102 µM. Further, the half-inhibitory concentration (IC50) with P. falciparum K1 (setting [2]) was 1.87 µM.
For the molecule `CCOc1ccc(-c2nonc2NC(=O)c2ccc(CN3CCOCC3)cc2)cc1OCC` [Compound 27, N-(4-(3,4-Diethoxyphenyl)-1,2,5-oxadiazol-3-yl)-4-((morpholin-4-yl)methyl)benzamide], the melting point is 269 °C (dec.). Besides, the IC50 with P. falciparum NF54 (setting [3]) lay within 0.674 to 4.05 µM. For the same molecule, the IC50 in the series with P. falciparum NF54 (chloroquine-sensitive strain) came to 0.674 µM. In “in vitro”, this molecule returned an IC50 at 72 h of 116 µM. Further, in the series with P. falciparum K1 (setting [2]), the IC50 worked out at 0.586 µM.
On to `CCOc1ccc(-c2nonc2NC(=O)c2cccc(CN3CCCC3)c2)cc1OCC` [Compound 28, N-(4-(3,4-Diethoxyphenyl)-1,2,5-oxadiazol-3-yl)-3-((pyrrolidin-1-yl)methyl)benzamide], for which the IC50 in the series on P. falciparum NF54 (setting [3]) was 0.192 µM. In addition, in series [1], the Papp at 5 h, 200 µM was 7.26 ×10⁻⁶ cm/s. The IC50 at 72 h in the series “in vitro” turned out to be 77.2 µM.
In the case of `CCOc1ccc(-c2nonc2NC(=O)c2cccc(CN3CCOCC3)c2)cc1OCC` [Compound 29, N-(4-(3,4-Diethoxyphenyl)-1,2,5-oxadiazol-3-yl)-3-((morpholin-4-yl)methyl)benzamide], the melting point turned out to be 199 °C. In addition, the IC50 with P. falciparum NF54 (setting [3]) was 0.712 µM. The Papp at 5 h, 200 µM in series [1] came to 5.65 ×10⁻⁶ cm/s. The IC50 at 72 h in the series “in vitro” was 104 µM.
In the case of `CCOc1ccc(-c2nonc2NC(=O)CN2CCCC2)cc1OCC` [Compound 31, N-(4-(3,4-Diethoxyphenyl)-1,2,5-oxadiazol-3-yl)-2-(pyrrolidin-1-yl)acetamide], in the series with P. falciparum NF54 (setting [3]), the IC50 was 7.24 µM. For the same molecule, in series [1], the “Pe (effective permeability)” value was 10.80 10^−6 cm/s and the Papp at 5 h, 200 µM fell in the range of 10.2 to 10.8 ×10⁻⁶ cm/s. Also, 242 µM corresponded to half-maximal inhibition in “in vitro” (IC50 at 72 h). In addition, the IC50 with P. falciparum K1 (setting [2]) was 5.02 µM.
The corresponding values for `CCOc1ccc(-c2nonc2NC(=O)CN2CCOCC2)cc1OCC` [Compound 32, N-(4-(3,4-Diethoxyphenyl)-1,2,5-oxadiazol-3-yl)-2-(morpholin-4-yl)acetamide] are 24.2 µM, 10.25 10^−6 cm/s, 10.2 to 10.8 ×10⁻⁶ cm/s, 266 µM and 19.5 µM.
Take `CCOc1ccc(-c2nonc2NC(=O)CCN2CCCC2)cc1OCC` [Compound 34, N-(4-(3,4-Diethoxyphenyl)-1,2,5-oxadiazol-3-yl)-3-(pyrrolidin-1-yl)propanamide]: the IC50 amounted to 56 µM in the series on P. falciparum NF54 (setting [3]) and 2.41 µM in the series with P. falciparum K1 (setting [2]). The Papp at 5 h, 200 µM in series [1] is 6.93 ×10⁻⁶ cm/s. In addition, in “in vitro”, the IC50 at 72 h came to 140 µM.
The like results for `CCOc1ccc(-c2nonc2NC(=O)CCN2CCOCC2)cc1OCC` [Compound 35, N-(4-(3,4-Diethoxyphenyl)-1,2,5-oxadiazol-3-yl)-3-(morpholin-4-yl)propanamide] were, in that order, 30.2 µM, 19 µM, 6.08 ×10⁻⁶ cm/s and 147 µM.
The like results for `Cc1cccc(C(=O)Nc2nonc2-c2ccccc2)c1` [Compound 39, 3-Methyl-N-(4-phenyl-1,2,5-oxadiazol-3-yl)benzamide] were, in that order, 21.5 µM, 39.9 µM, 8.47 ×10⁻⁶ cm/s and 66 µM.
In “in vitro”, `COc1cc([C@@H]2c3cc4c(cc3[C@H](O)[C@H]3COC(=O)[C@H]23)OCO4)cc(OC)c1OC` [POD, podophyllotoxin, reference compound] gave an IC50 at 72 h of 0.012 µM.

Source of the values: PMC8145535, “New Acyl Derivatives of 3-Aminofurazanes and Their Antiplasmodial Activities” (Pharmaceuticals, 2021).
